Assays:
P388 leukemia = assay: In vivo tumor test, i.p. implanted P388 leukemia; set-up: species or system mice; details: for Optimum Dose: P388, 10⁶ ascites cells i.p., single i.p. injection of drug, day 1; for Maximum Effect T/C: P388, T/C = median survival time (treated/control) X 100, single i.p. injection day 1, 30 days
Description: (§1) The in vivo tumor tests were performed utilizing methods described in detail in a previous publication (8). The lymphatic leukemias P-388 and L-1210 were used for initial testing of mitomycin and daunomycin derivatives respectively. Selected compounds were tested against subcutaneouly implanted B16 melanoma with treatment administered intravenously. Experimental parameters are shown in the footnotes of the accompanying tables.
(§2) Three murine tumor models were used to evaluate the in-vivo activities of the drugs.

B16 melanoma = assay: In vivo tumor test, subcutaneously implanted B16 melanoma; set-up: species or system mice; details: for Optimum Dose / Maximum Effect T/C: B16 melanoma s.c., three i.v. injections, days 1, 5 and 9; for Maximum Effect T/C: 60 days; for antitumor activity: subcutaneously implanted B16 melanoma, i.v. days 1, 5 and 9
Description: as §1
Some of the MMC and MMA derivatives were tested for activity against subcutaneously implanted B16 melanoma. In these experiments, the drugs were administered i.v. on days 1,5 and 9 after implantation of the tumor. The cleavable MMC prodrugs, 20 and 21, were about as active as MMC. […] The cleavable prodrugs, 24 - 27, were as active as MMA, with 24 showing slightly greater activity.

L1210 leukemia = assay: In vivo tumor test, i.p. implanted L1210 leukemia; set-up: species or system mice; details: for Optimum Dose: L1210, 10⁶ ascites cells i.p., single i.p. injection of drug, day 1; for Maximum Effect T/C: L1210, T/C = median survival time (treated/control) X 100, single i.p. injection day 1, 30 days; for in-vivo activity: L1210, optimal i.p. dose
Description: as §1, §2

[1] = Model study: stability and dithiothreitol-induced fragmentation of model benzyl carbamate disulfide; assay type: physicochemical
From the text: In order to establish that benzyl carbamates with suitably positioned disulfide substituents would undergo fragmentation of the carbamate upon disulfide reduction, model studies were undertaken using p-nitroaniline as a leaving group. The synthesis of the model benzyl carbamate 12 is depicted in Figure 1.
The course of reaction was monitored by uv/vis spectroscopy, in which 14 (λ max 371 nm) was easily distinguished from the starting material 12 (λ max 313nm). […] It was also observed that the release of 14 was slightly faster at 37°C than at room temperature.

| Compound | Optimum Dose (P388 leukemia) [mg/kg] | Maximum Effect T/C (P388 leukemia) | Optimum Dose (B16 melanoma) [mg/kg/inj] | Maximum Effect T/C (B16 melanoma) | other results |
| --- | --- | --- | --- | --- | --- |
| CO[C@@]12[C@H](COC(N)=O)C3=C(C(=O)C(C)=C(N)C3=O)N1C[C@H]1[C@@H]2N1C(=O)OCc1ccccc1SSc1ccccn1 [Compound 18, MMC Benzyl Carbamate Disulfide] | 51.2 | 195 | – | – | – |
| CO[C@@]12[C@H](COC(N)=O)C3=C(C(=O)C(C)=C(N)C3=O)N1C[C@H]1[C@@H]2N1C(=O)OCc1ccc(SSc2ccccn2)cc1 [Compound 20, MMC Benzyl Carbamate Disulfide] | 25.6 | 353 | 12.8 | 145 | – |
| COC1=C(C)C(=O)C2=C(C1=O)[C@@H](COC(N)=O)[C@@]1(OC)[C@H]3N[C@H]3CN21 [Compound 22, mitomycin A, reference compound] | 3.2 | 180 | 0.4 | 182 | – |
| COc1cccc2c1C(=O)c1c(O)c3c(c(O)c1C2=O)C[C@@](O)(C(C)=O)C[C@@H]3O[C@H]1C[C@H](N)[C@H](O)[C@H](C)O1 [Compound 28, daunomycin, reference compound] | – | – | – | – | Optimum Dose (L1210 leukemia): 3.2 mg/kg; Maximum Effect T/C (L1210 leukemia): 154 |
| COc1cccc2c1C(=O)c1c(O)c3c(c(O)c1C2=O)C[C@@](O)(C(C)=O)C[C@@H]3O[C@H]1C[C@H](NC(=O)OCc2ccccc2)[C@H](O)[C@H](C)O1 [Compound 29, DAU Benzyl Carbamate] | – | – | – | – | Optimum Dose (L1210 leukemia): 9.0 mg/kg; in-vivo activity (L1210 leukemia): inactive; Maximum Effect T/C (L1210 leukemia): 100 |
| Benzyl Carbamate Disulfide [Compound 12] | – | – | – | – | stability in buffered aqueous methanol ([1]; aqueous methanol buffered between pH 6 to 8, no reducing agent): stable for several days; release of p-nitroaniline upon treatment with dithiothreitol ([1]; dithiothreitol, uv/vis and HPLC): p-nitroaniline was released |
| DAU Benzyl Carbamate Disulfide [Compound 30] | – | – | – | – | Optimum Dose (L1210 leukemia): 3.0 mg/kg; in-vivo activity (L1210 leukemia): inactive; Maximum Effect T/C (L1210 leukemia): 100 |
| MMA Benzyl Carbamate Disulfide [Compound 23] | – | – | 6.4 | 124 | antitumor activity (B16 melanoma): little activity |
| MMA Benzyl Carbamate Disulfide [Compound 25] | 3.2 | 153 | 3.2 | 191 | – |
| MMA Benzyl Carbamate Disulfide [Compound 26] | 3.2 | 163 | 3.2 | 182 | – |
| MMA Benzyl Carbamate Disulfide [Compound 27] | 12.8 | 163 | 9.6 | 182 | – |
| MMC Benzyl Carbamate Disulfide [Compound 19] | 51.2 | 185 | – | – | – |
| MMC Benzyl Carbamate Disulfide [Compound 21] | 12.8 | 222 | 6.4 | 123 | – |
| MMC Benzyl Carbamate [Compound 17] | 12.8 | 144 | 4.8 | 96 | antitumor activity (B16 melanoma): little activity |
| mitomycin C [Compound 16, reference compound] | 3.2 | 266 | 3.0 | 143 | – |

Source: patent EP0317956A2, “Anti-tumor prodrugs” (Bristol-Myers Squibb Company, priority 1987, dated 1989)
